Measurements as given in patent US4933347A, “Diamidines and bis(imidazolines) for the treatment of and prophylaxis against pneumocystis carinii pneumonia” (University of North Carolina at Chapel Hill, priority 1988, dated 1990).

Tested on: Pneumocystis carinii
Assay: Treatment of Pneumocystis carinii pneumonia in Sprague-Dawley rats (extent of disease by histologic score)
Type: in vivo, male Sprague-Dawley rats
Conditions: for Extent of Disease by Histologic Score: number of animals with score 0.5 / Extent of disease by histologic score (combined): number of animals in scoring group 0.5: 0.5 = <10 cysts found per 2 sections; for Extent of disease by histologic score (combined): number of animals in scoring group 0.5 / Extent of disease by histologic score (combined): number of animals in scoring group 1 / Extent of disease by histologic score (combined): number of animals in scoring group 2 / Extent of disease by histologic score (combined): number of animals in scoring group 3 / Extent of disease by histologic score (combined): number of animals in scoring group 4: Table XII composite; for Extent of disease by histologic score (combined): number of animals in scoring group 2: 5-10% of lung involved
Method: Induction and Treatment Of Pneumocystis Carinii in Sprague-Dawley Rats
Male Sprague-Dawley rats, barrier raised, non-certified virus free, weighing 150-200g were obtained from Hilltop Laboratories and housed individually. Animals were begun on a low (8%) protein diet (ICN Biomedicals, Cincinnati, OH) and drinking water containing tetracycline (0.5 mg/ml) and dexamethasone (1.0 μg/ml) immediately upon arrival. This treatment was given for the next 8 weeks, monitoring fluid intake daily and weighing animals weekly. Dilutions of the drinking solution were made when animals consumed too much fluid so as to prevent cortisone poisoning. At the beginning of the sixth week, animals were divided into groups of 8 animals each and the test compounds were administered daily by i.v. injection at a dose of 10 mg/kg, unless otherwise noted, for the next 14 days.
Animals were sacrificed at the end of the eighth week by chloroform inhalation and the left lung was removed aseptically and placed in sterile Hank's balanced salts solution without calcium or magnesium (HBSS-) for the ground tissue procedure. The right lung was inflated in situ with 10% […] and removed for histologic examination GMS staining. […]

[1] = 10 mg/kg unless otherwise noted
[2] = 10 mg/kg i.v. daily, 14 days, 1 = scattered cysts, <5% of lung involved
[3] = 10 mg/kg i.v. daily, 14 days, 2 = scattered cysts, 5-10% lung involved or small foci of infection
[4] = 10 mg/kg i.v. daily, 14 days, 3 = scattered cysts, 10-50% of lung involved with some intense areas of infection
[5] = 10 mg/kg i.v. daily, 14 days, 4 = >50% of lung involved with many intense areas of focal infection
[6] = 10 mg/kg, 1 = scattered cysts, <5% of lung involved
[7] = 10 mg/kg, 3 = scattered cysts, 10-50% of lung involved
[8] = 10 mg/kg, 4 = >50% of lung involved

SMILES	Efficacy in treating PCP compared with pentamidine [1]	Extent of Disease by Histologic Score: number of animals with score 0.5 (10 mg/kg i.v. daily, 14 days) [animals]	Extent of Disease by Histologic Score: number of animals with score 1 [2] [animals]	Extent of Disease by Histologic Score: number of animals with score 2 [3] [animals]	Extent of Disease by Histologic Score: number of animals with score 3 [4] [animals]	Extent of Disease by Histologic Score: number of animals with score 4 [5] [animals]	Extent of disease by histologic score (combined): number of animals in scoring group 0.5 (10 mg/kg) [animals]	Extent of disease by histologic score (combined): number of animals in scoring group 1 [6] [animals]	Extent of disease by histologic score (combined): number of animals in scoring group 2 (10 mg/kg, 2 = scattered cysts) [animals]	Extent of disease by histologic score (combined): number of animals in scoring group 3 [7] [animals]	Extent of disease by histologic score (combined): number of animals in scoring group 4 [8] [animals]	other results
COc1cc(C(=N)N)ccc1OCCCCCOc1ccc(C(=N)N)cc1OC [Example 15]	improved performance in treating pcp											Extent of Disease by Histologic Score: number of animals with score 0.5 (5 mg/kg i.v. daily, 14 days): 0 animals; Extent of Disease by Histologic Score: number of animals with score 1 (5 mg/kg i.v. daily, 14 days, 1 = scattered cysts, <5% of lung involved): 3 animals; Extent of Disease by Histologic Score: number of animals with score 2 (5 mg/kg i.v. daily, 14 days, 2 = scattered cysts, 5-10% lung involved or small foci of infection): 4 animals; Extent of Disease by Histologic Score: number of animals with score 3 (5 mg/kg i.v. daily, 14 days, 3 = scattered cysts, 10-50% of lung involved with some intense areas of infection): 1 animals; Extent of Disease by Histologic Score: number of animals with score 4 (5 mg/kg i.v. daily, 14 days, 4 = >50% of lung involved with many intense areas of focal infection): 0 animals; Extent of Disease by Histologic Score: number of animals with score 0.5 (Table III, Example 15 (Table XII footnote d: 2.5 mg/kg)): 2 animals; Extent of Disease by Histologic Score: number of animals with score 1 (Table III, Example 15 (Table XII footnote d: 2.5 mg/kg), 1 = <5% of lung involved): 1 animals; Extent of Disease by Histologic Score: number of animals with score 2 (Table III, Example 15 (Table XII footnote d: 2.5 mg/kg), 2 = 5-10% lung involved): 3 animals; Extent of Disease by Histologic Score: number of animals with score 3 (Table III, Example 15 (Table XII footnote d: 2.5 mg/kg), 3 = 10-50% of lung involved): 0 animals; Extent of Disease by Histologic Score: number of animals with score 4 (Table III, Example 15 (Table XII footnote d: 2.5 mg/kg), 4 = >50% of lung involved): 0 animals; Extent of disease by histologic score (combined): number of animals in scoring group 0.5 (tested at 2.5 mg/kg): 2 animals; Extent of disease by histologic score (combined): number of animals in scoring group 1 (tested at 2.5 mg/kg, 1 = scattered cysts, <5% of lung involved): 4 animals; Extent of disease by histologic score (combined): number of animals in scoring group 2 (tested at 2.5 mg/kg, 2 = scattered cysts): 7 animals; Extent of disease by histologic score (combined): number of animals in scoring group 3 (tested at 2.5 mg/kg, 3 = scattered cysts, 10-50% of lung involved): 1 animals; Extent of disease by histologic score (combined): number of animals in scoring group 4 (tested at 2.5 mg/kg, 4 = >50% of lung involved): 0 animals; Efficacy in treating PCP compared with control (compound at 5 mg/kg): significantly better, at one half the dose, than the control
N=C(N)c1ccc(NCCCCCNc2ccc(C(=N)N)cc2N)c(N)c1 [Example 19]	not as good as pentamidine in controlling pcp	0	2	4	2	0	3	2	3	0	0	Efficacy in treating PCP compared with control [1]: better than the control
N=C(N)c1ccc(OCCCCCCOc2ccc(C(=N)N)cc2)cc1 [Example 20, hexamidine, reference compound]	improved performance in treating pcp	3	3	1	0	0	3	3	1	0	0	
N=C(N)c1ccc(OCCCCCCOc2ccc(C(=N)N)cc2[N+](=O)[O-])c([N+](=O)[O-])c1 [Example 21]												Extent of Disease by Histologic Score: number of animals with score 0.5 (1.25 mg/kg (dose from Table XII footnote e)): 4 animals; Extent of Disease by Histologic Score: number of animals with score 1 (1.25 mg/kg (dose from Table XII footnote e), 1 = scattered cysts, <5% of lung involved): 1 animals; Extent of Disease by Histologic Score: number of animals with score 2 (1.25 mg/kg (dose from Table XII footnote e), 2 = scattered cysts, 5-10% lung involved or small foci of infection): 1 animals; Extent of Disease by Histologic Score: number of animals with score 3 (1.25 mg/kg (dose from Table XII footnote e), 3 = scattered cysts, 10-50% of lung involved): 0 animals; Extent of Disease by Histologic Score: number of animals with score 4 (1.25 mg/kg (dose from Table XII footnote e), 4 = >50% of lung involved): 0 animals; Extent of disease by histologic score (combined): number of animals in scoring group 0.5 (tested at 1.25 mg/kg): 4 animals; Extent of disease by histologic score (combined): number of animals in scoring group 1 (tested at 1.25 mg/kg, 1 = scattered cysts, <5% of lung involved): 1 animals; Extent of disease by histologic score (combined): number of animals in scoring group 2 (tested at 1.25 mg/kg, 2 = scattered cysts): 1 animals; Extent of disease by histologic score (combined): number of animals in scoring group 3 (tested at 1.25 mg/kg, 3 = scattered cysts, 10-50% of lung involved): 0 animals; Extent of disease by histologic score (combined): number of animals in scoring group 4 (tested at 1.25 mg/kg, 4 = >50% of lung involved): 0 animals
N=C(N)c1ccc(NCCCCCCNc2ccc(C(=N)N)cc2N)c(N)c1 [Example 23]		3	1	2	0	1	3	1	2	0	1	
N=C(N)c1cccc(OCCCOc2cccc(C(=N)N)c2)c1 [Example 26]		2	1	4	1	0	2	1	4	1	0	
N=C(N)c1cccc(OCCCCOc2cccc(C(=N)N)c2)c1 [Example 27]		2	1	1	3	0	2	1	1	3	0	
